Data from patent US6838019B2, “Phosphorescent material and electroluminescent device using thereof” (Ritek Corporation, priority 2001, dated 2005).

Test: Solubility test in organic solvents
Type: physicochemical
Design: key: X: not dissolved; ◯: partially dissolved; ⊚: completely dissolved
Settings: 1 mg, room temperature (20 degrees Celsius); for Solubility in methylcyclohexane: methyl cyclohexane
Method: 1 mg of Tb(TMHD)3—DMSO, Tb(TMHD)3—MPSO, Tb(TMHD)3—DPSO, Tb(TMHD)3, Tb(TMHD)3—OPNP are each dissolved under room temperature (20 degrees Celsius) in the following organic solvent: dichlormethane, acetonitrile, toluene, ethyl acetate, hexane, methyl cyclohexane methanol, methy ethyl ketone ether.

Compound	Solubility in acetonitrile	Solubility in dichloromethane	Solubility in ether	Solubility in ethyl acetate	Solubility in hexane	Solubility in methanol	Solubility in methylcyclohexane	Solubility in methyl ethyl ketone	Solubility in toluene
CC(C)(C)C(=O)[CH-]C(=O)C(C)(C)C.CC(C)(C)C(=O)[CH-]C(=O)C(C)(C)C.CC(C)(C)C(=O)[CH-]C(=O)C(C)(C)C.[Tb+3] [Tb(TMHD)3, tris(2,2,6,6-tetramethyl-3,5-heptanedionato) Terbium(III), reference compound]	X	◯	◯	X	X	X	X	X	◯
CC(C)(C)C(=O)C=C([O-])C(C)(C)C.CC(C)(C)C(=O)C=C([O-])C(C)(C)C.CC(C)(C)C(=O)C=C([O-])C(C)(C)C.CS(C)=O.[Tb+3] [Tb(TMHD)3-DMSO, tri(2,2,6,6-tetramethyl-3,5-heptanedionate) Tb(III) dimethyl sulfoxide]	◯	⊚	⊚	⊚	⊚	⊚	⊚	⊚	⊚
CC(C)(C)C(=O)C=C([O-])C(C)(C)C.CC(C)(C)C(=O)C=C([O-])C(C)(C)C.CC(C)(C)C(=O)C=C([O-])C(C)(C)C.O=S(c1ccccc1)c1ccccc1.[Tb+3] [Tb(TMHD)3-DPSO, tri(2,2,6,6-tetramethyl-3,5-heptanedionate) Tb(III) diphenyl sulfoxide]	◯	⊚	⊚	⊚	⊚	⊚	⊚	⊚	⊚
CC(C)(C)C(=O)C=C([O-])C(C)(C)C.CC(C)(C)C(=O)C=C([O-])C(C)(C)C.CC(C)(C)C(=O)C=C([O-])C(C)(C)C.CS(=O)c1ccccc1.[Tb+3] [Tb(TMHD)3-MPSO, tri(2,2,6,6-tetramethyl-3,5-heptanedionate) Tb(III) methyl phenyl sulfoxide]	◯	⊚	⊚	⊚	⊚	⊚	⊚	⊚	⊚
Tris(2,2,6,6-tetramethyl-3,5-heptanedionato) Terbium (III) diphenyl phosphonimide tris-phenyl phosphorane [Tb(TMHD)3-OPNP, reference compound]	◯	⊚	⊚	⊚	◯	◯	◯	⊚	⊚
